Laboratory results taken from publication PMC12040169 (PLOS Biology, 2025).

Assay: in vitro
Conditions: human, hela cells, % viability

Row | SMILES | viability at 28.5 h, 10 µM
1 | CC(C)NC(=O)N[C@H]1CCN2C(=O)c3cc(-c4ccccc4)ccc3NC(=O)[C@H]12 [CBK289351] | 84.1%
2 | O=C(N[C@H]1C[C@H]2C(=O)Nc3ccccc3C(=O)N2C1)c1cccnc1 [CBK289356] | 110%
3 | COCC(=O)N[C@H]1C[C@H]2C(=O)Nc3ccc(Br)cc3C(=O)N2C1 [CBK289357] | 97.6%
4 | COCC(=O)N[C@H]1C[C@H]2C(=O)Nc3ccc(-c4cccs4)cc3C(=O)N2C1 [CBK289358] | 110%
5 | COc1ccc(C(=O)N[C@H]2C[C@H]3C(=O)Nc4ccc(-c5ccsc5)cc4C(=O)N3C2)cc1 [CBK289362] | 91.7%
6 | CS(=O)(=O)N[C@H]1C[C@H]2C(=O)Nc3cc(Cl)ccc3C(=O)N2C1 [CBK289363] | 89%
7 | Cn1cccc1C(=O)N[C@H]1C[C@H]2C(=O)Nc3cc(Cl)ccc3C(=O)N2C1 [CBK289364] | 86.7%
8 | C=CCNC(=O)N[C@H]1C[C@H]2C(=O)Nc3cc(Cl)ccc3C(=O)N2C1 [CBK289365] | 92.5%
9 | Cn1cccc1C(=O)N[C@H]1C[C@H]2C(=O)Nc3ccc(/C=C/c4ccccc4)cc3C(=O)N2C1 [CBK289367] | 86.7%
10 | CS(=O)(=O)N[C@H]1C[C@H]2C(=O)Nc3ccc(-c4ccc(F)cc4F)cc3C(=O)N2C1 [CBK289368] | 85.3%
11 | CS(=O)(=O)N1CC[C@H](c2nc3cc(Cl)ccc3o2)C1 [CBK289370] | 86%
12 | CC(=O)Nc1ccc(S(=O)(=O)N2CC[C@H](c3nc4ccccc4o3)C2)cc1 [CBK289373] | 103%
13 | CC(=O)N1CC[C@H](c2nc3ccc(C#N)cc3[nH]2)C1 [CBK289378] | 108%
14 | CCS(=O)(=O)c1ccc2oc([C@H]3CCN(C(=O)C4CCCCC4)C3)nc2c1 [CBK289381] | 104%
15 | c1ccc(CN2CC[C@H](c3nc4ncccc4[nH]3)C2)cc1 [CBK289383] | 106%
16 | O=C(O)c1ccc(CN2CC[C@H](c3nc4ccccc4o3)C2)cc1 [CBK289387] | 108%
17 | c1ccc2oc([C@H]3CCN(C4CCOCC4)C3)nc2c1 [CBK289388] | 92.3%
18 | Cc1nnc([C@H]2CCN(Cc3ccccc3)C2)o1 [CBK289390] | 114%
19 | Cc1nnc([C@H]2CCN(Cc3cccs3)C2)o1 [CBK289393] | 103%
20 | c1cncc(-c2nnc([C@H]3CCNC3)o2)c1 [CBK289396] | 103%
21 | Cc1ccc(-c2nnc([C@H]3CCN(Cc4ccc(CO)o4)C3)o2)cc1 [CBK289399] | 90%
22 | CCCc1nnc([C@H]2CCN(Cc3ccc(S(C)(=O)=O)cc3)C2)o1 [CBK289402] | 100%
23 | CN1CCC(N2CC[C@H](c3nnc(-c4cncn4C)o3)C2)CC1 [CBK289403] | 117%
24 | CN(C)c1ccc(-c2nnc([C@H]3CCN(C(=O)CCC(=O)O)C3)o2)cc1 [CBK289408] | 119%
25 | COc1ccc(-c2nnc([C@H]3CCN(C(=O)C4CC4)C3)o2)cc1 [CBK289409] | 89.6%

Row | SMILES | viability at 28.5 h, 10 µM
26 | COCC(=O)N1CC[C@H](c2nnc(-c3ccncc3)o2)C1 [CBK289413] | 88%
27 | CN(C)c1ccc(CN2CC[C@H](c3nc4cccc(C(N)=O)c4[nH]3)C2)cc1 [CBK289414] | 105%
28 | CC(C)C[C@@H]1N[C@H](C(=O)NCCN(C)C)Cc2c[nH]c3cccc1c23 [CBK289417] | 92.9%
29 | CC(C)C[C@@H]1N[C@H](C(=O)NCc2cccnc2)Cc2c[nH]c3cccc1c23 [CBK289418] | 90%
30 | COCCN1CCN(C(=O)[C@@H]2Cc3c[nH]c4cccc(c34)[C@H](CC(C)C)N2)CC1 [CBK289419] | 84.5%
31 | Cc1cc(CNC(=O)[C@@H]2Cc3cn(C)c4cccc(c34)[C@H](CC(C)C)N2)no1 [CBK289420] | 104%
32 | CC(C)C[C@@H]1N[C@H](C(=O)N2CCN(c3ncccn3)CC2)Cc2cn(C)c3cccc1c23 [CBK289421] | 84.2%
33 | C#CCNC(=O)[C@@H]1Cc2cn(Cc3nccn3C)c3cccc(c23)[C@H](CC(C)C)N1 [CBK289424] | 108%
34 | C#CCNC(=O)[C@@H]1Cc2cn(Cc3c(C)noc3C)c3cccc(c23)[C@H](CC(C)C)N1 [CBK289425] | 93.7%
35 | COc1ccc(-c2cc(CC3(NC(C)=O)COC3)no2)cc1 [CBK289428] | 94.5%
36 | COCC(=O)Nc1nc2c(s1)C[C@]1(C)CC[C@@H]3[C@H](OC(=O)[C@H]3C)[C@H]1[C@@H]2C [CBK289430] | 105%
37 | C[C@@H]1C(=O)O[C@H]2[C@H]1CC[C@@]1(C)Cc3sc(NC(=O)CN(C)C)nc3[C@@H](C)[C@H]21 [CBK289431] | 87.3%
38 | Cc1cc(OCC(=O)O)c(C)c2c1CC[C@@H]([C@H](C)C(=O)N1CCC(O)CC1)C2 [CBK289433] | 78.7%
39 | CC(=O)N[C@H]1CC[C@]2(C)CCC([C@H](C)C(=O)NCCN3CCOCC3)[C@H](O)[C@H]2[C@@H]1C (some centres unmarked) [CBK289434] | 114%
40 | CC(=O)N[C@H]1CC[C@]2(C)CCC([C@H](C)C(=O)N(C)Cc3ccccc3)[C@H](O)[C@H]2[C@@H]1C (some centres unmarked) [CBK289435] | 110%
41 | CC(=O)N[C@H]1CC[C@]2(C)CCC([C@H](C)C(=O)NC3CC3)[C@H](O)[C@H]2[C@@H]1C (some centres unmarked) [CBK289437] | 93.9%
42 | CC(=O)N[C@H]1CC[C@]2(C)CCC([C@H](C)C(=O)NCCN3CCCC3)[C@H](O)[C@H]2[C@@H]1C (some centres unmarked) [CBK289440] | 86.5%
43 | C[C@H]1[C@@H]2[C@@H](O)C([C@H](C)C(=O)NC3CC3)CC[C@@]2(C)CC[C@@H]1NC(=O)C1CC1 (some centres unmarked) [CBK289442] | 87.1%
44 | CC(C)NC(=O)[C@@H](C)C1CC[C@@]2(C)CC[C@H](NC(=O)C3CC3)[C@@H](C)[C@@H]2[C@H]1O (some centres unmarked) [CBK289444] | 85%
45 | C[C@H]1[C@@H]2[C@@H](O)C([C@H](C)C(=O)N3CCCCC3)CC[C@@]2(C)CC[C@@H]1NC(=O)C1CC1 (some centres unmarked) [CBK289446] | 106%
46 | C[C@H]1[C@@H]2[C@@H](O)C([C@H](C)C(=O)N3CCCC3)CC[C@@]2(C)CC[C@@H]1NC(=O)C1CC1 (some centres unmarked) [CBK289447] | 85%
47 | C[C@H]1[C@@H]2[C@@H](O)C([C@H](C)C(=O)N3CCCCC3)CC[C@@]2(C)CC[C@@H]1NC(=O)c1cnccn1 (some centres unmarked) [CBK289448] | 111%
48 | CC(C)NC(=O)[C@@H](C)C1CC[C@@]2(C)CC[C@H](NC(=O)c3ccncc3)[C@@H](C)[C@@H]2[C@H]1O (some centres unmarked) [CBK289449] | 89.1%
49 | C[C@H]1[C@@H]2[C@H]3OC(=O)[C@@H](C)[C@@H]3CC[C@@]2(C)CC[C@@H]1NC(=O)c1ccccn1 [CBK289452] | 107%
50 | C[C@H]1[C@@H]2[C@@H](O)C([C@H](C)C(=O)NC3CC3)CC[C@@]2(C)CC[C@@H]1NC(=O)c1cncnc1 (some centres unmarked) [CBK289453] | 91.5%

Row | SMILES | viability at 28.5 h, 10 µM
51 | CC(C)NC(=O)[C@@H](C)C1CC[C@@]2(C)CC[C@H](NC(=O)c3cncnc3)[C@@H](C)[C@@H]2[C@H]1O (some centres unmarked) [CBK289454] | 103%
52 | CCNC(=O)N[C@H]1CC[C@]2(C)CCC([C@H](C)C(=O)N3CCCC3)[C@H](O)[C@H]2[C@@H]1C (some centres unmarked) [CBK289456] | 116%
53 | Cc1noc(C)c1C(=O)N[C@H]1CO[C@H]2[C@@H]1OC[C@H]2OCc1ccccc1 [CBK289458] | 96.7%
54 | COc1ccc(C(=O)N[C@H]2CO[C@H]3[C@@H]2OC[C@H]3OC(=O)Nc2ccccc2)cc1 [CBK289463] | 103%
55 | O=C(Nc1ccccc1)O[C@@H]1CO[C@H]2[C@@H]1OC[C@@H]2NC(=O)C1CC1 [CBK289464] | 88%
56 | O=C(Nc1cccc2ccccc12)O[C@@H]1CO[C@H]2[C@@H]1OC[C@@H]2NC(=O)c1cccs1 [CBK289468] | 103%
57 | CC(=O)N[C@H]1CO[C@H]2[C@@H]1OC[C@H]2OC(=O)Nc1ccc(Oc2ccccc2)cc1 [CBK289470] | 113%
58 | CC(C)c1ccc(NC(=O)O[C@@H]2CO[C@H]3[C@@H]2OC[C@@H]3NC(=O)C2CC2)cc1 [CBK289471] | 99%
59 | CCNC(=O)O[C@@H]1CO[C@H]2[C@@H]1OC[C@@H]2NC(=O)c1ccc(C)cc1 [CBK289472] | 106%
60 | O=C(Nc1cccc(C(F)(F)F)c1)N[C@H]1CO[C@H]2[C@@H]1OC[C@H]2O [CBK289476] | 102%
61 | Cc1ccc(S(=O)(=O)N[C@H]2CO[C@H]3[C@@H]2OC[C@H]3O)cc1 [CBK289477] | 98.4%
62 | O=S(=O)(N[C@H]1CO[C@H]2[C@@H]1OC[C@H]2O)c1ccc(Cl)cc1 [CBK289478] | 87.7%
63 | CC(C)c1ccc(NC(=O)O[C@@H]2CO[C@H]3[C@@H]2OC[C@@H]3NC(=O)c2cncnc2)cc1 [CBK289480] | 105%
64 | CN(C)c1ccc(-c2nnnn2[C@H]2CO[C@H]3[C@@H]2OC[C@H]3O)cc1 [CBK289481] | 76.7%
65 | O=C(N[C@H]1CO[C@H]2[C@@H]1OC[C@@H]2n1nnnc1-c1ccccc1)c1ccccc1 [CBK289482] | 120%
66 | CC(=O)N[C@H]1CO[C@H]2[C@@H]1OC[C@@H]2n1nnnc1-c1ccccc1 [CBK289483] | 87.1%
67 | CCNC(=O)N[C@H]1CO[C@H]2[C@@H]1OC[C@@H]2n1nnnc1Oc1ccccc1 [CBK289484] | 102%
68 | CC(=O)N[C@H]1CO[C@H]2[C@@H]1OC[C@@H]2n1nnnc1Oc1ccc(-n2ccnc2)cc1 [CBK289487] | 104%
69 | COCc1cn([C@H]2CO[C@H]3[C@@H]2OC[C@H]3OC(=O)Nc2ccc(C)cc2)nn1 [CBK289489] | 90.6%
70 | COC(=O)c1cn([C@H]2CO[C@H]3[C@@H]2OC[C@H]3OC(=O)Nc2ccccc2)nn1 [CBK289492] | 91.4%
71 | COCc1cn([C@H]2CO[C@H]3[C@@H]2OC[C@@H]3NC(=O)Nc2ccc(OC)cc2)nn1 [CBK289495] | 107%
72 | COC(=O)c1cn([C@H]2CO[C@H]3[C@@H]2OC[C@@H]3NC(=O)C2CC2)nn1 [CBK289497] | 86%
73 | COC(=O)c1cn([C@H]2CO[C@H]3[C@@H]2OC[C@@H]3NS(=O)(=O)Cc2ccccc2)nn1 [CBK289498] | 86.9%
74 | COC(=O)c1cn([C@H]2CO[C@H]3[C@@H]2OC[C@@H]3NC(=O)Nc2ccc(OC)cc2)nn1 [CBK289500] | 94.2%
